Experimental findings from patent publication US11178871B2, “Herbicidal pyrimidine compounds” (BASF SE, priority 2016, dated 2021) are described below.

Assay type in all cases: in vivo
The test system of one assay is Setaria viridis. The assay can be described thus: greenhouse test, post-emergence treatment, SETVI. The text has this: (§1) The culture containers used were plastic flowerpots containing loamy sand with approximately 3.0% of humus as the substrate. The seeds of the test plants were sown separately for each species.
(§2) For the post-emergence treatment, the test plants were first grown to a height of 3 to 15 cm, depending on the plant habit, and only then treated with the active ingredients which had been suspended or emulsified in water. For this purpose, the test plants were either sown directly and grown in the same containers, or they were first grown separately as seedlings and transplanted into the test containers a few days prior to treatment.
(§3) Depending on the species, the plants were kept at 10-25° C. or 20-35° C., respectively.
(§4) The test period extended over 2 to 4 weeks. During this time, the plants were tended, and their response to the individual treatments was evaluated.
(§5) Evaluation was carried out using a scale from 0 to 100. 100 means no emergence of the plants, or complete destruction of at least the aerial moieties, and 0 means no damage, or normal course of growth. A good herbicidal activity is given at values of at least 70 and a very good herbicidal activity is given at values of at least 85.
(§6) The plants used in the greenhouse experiments were of the following species: […]

For assay [1], the system named is Echinocloa crus-galli. Put plainly: greenhouse test, post-emergence treatment, ECHCG. As to conditions: post-emergence. The method, boiled down: (§7)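 Seeds were sown per species in loamy sand with about 3.0% humus, grown (or transplanted as seedlings) to 3–15 cm, and treated with water-suspended or emulsified compound. Response was assessed over 2–4 weeks at species-dependent 10–25 °C or 20–35 °C, scored 0 (normal growth) to 100 (complete kill).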

Assay [2] concerns Echinocloa crus-galli. Put plainly: greenhouse test, pre-emergence treatment, ECHCG. The method, boiled down:
(§8)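 Scores run from 0, normal growth, to 100, no emergence or aerial parts destroyed, assessed after 2 to 4 weeks at 10-25 °C or 20-35 °C depending on species. Actives in water were spray-applied immediately post-sowing onto loamy sand with approximately 3.0% humus; hoods kept on until rooting.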

The next assay deals with Apera spica-venti. Put plainly: greenhouse test, pre-emergence treatment, APESV. The essentials: as §8
The next assay concerns Alopecurus myosuroides. Put plainly: greenhouse test, post-emergence treatment, ALOMY. As to conditions: post-emergence. The method, boiled down:
as §7

A further assay concerns Avena fatua. Put plainly: greenhouse test, post-emergence treatment, AVEFA. As to conditions: 1000 g/ha. The method, boiled down:
as §7

The next assay deals with Amaranthus retroflexus. The assay can be described thus: greenhouse test, post-emergence treatment, AMARE.
Text: as §1, §2, §3, §4, §5, §6

Each structure is given as a SMILES string.

Turning to `OC1(Cc2nc(C3CC3)ncc2-c2ccccc2Cl)CCCC1` [Ex. 74], the herbicidal activity entry with Setaria viridis (2000 g/ha) is “very good (a very good herbicidal activity is given at values of at least 85)”.

As for `Cc1cc(-c2nc(C3CC3)ncc2-c2ccccc2Br)co1` [Ex. 271], the herbicidal activity entry with Setaria viridis (1000 g/ha) is listed as “very good (a very good herbicidal activity is given at values of at least 85)”; in the assay on Echinocloa crus-galli [1] (1000 g/ha), “good (A good herbicidal activity is given at values of at least 70)”.

For `CCOP(=O)(OCC)C(Cc1nc(C2CC2)ncc1-c1ccccc1Cl)P(=O)(OCC)OCC` [Ex. 88], in the assay on Setaria viridis (2000 g/ha), the herbicidal activity result is reported as “very good (a very good herbicidal activity is given at values of at least 85)”.

As for `Fc1cccc(-c2cnc(C3CC3)nc2-c2ccco2)c1Cl` [Ex. 33], the herbicidal activity result with Setaria viridis (2000 g/ha) is given as “good (A good herbicidal activity is given at values of at least 70)”.

In the case of `CC(O)c1nc(C2CC2)ncc1-c1ccccc1Cl` (stereo not drawn) [Ex. 49], the herbicidal activity entry in the assay on Echinocloa crus-galli [2] (1000 g/ha) is on record as “good (A good herbicidal activity is given at values of at least 70)”; with Apera spica-venti (1000 g/ha), “good (A good herbicidal activity is given at values of at least 70)”; in the assay with Alopecurus myosuroides (1000 g/ha), “very good (a very good herbicidal activity is given at values of at least 85)”; in the assay on Setaria viridis (1000 g/ha), “very good (a very good herbicidal activity is given at values of at least 85)”; in the assay with Echinocloa crus-galli [1] (1000 g/ha), “good (A good herbicidal activity is given at values of at least 70)”.

With `Clc1ccccc1-c1cnc(C2CC2)nc1CC1CCOCC1` [Ex. 96], in the assay with Setaria viridis (1000 g/ha), the herbicidal activity entry is reported as “very good (a very good herbicidal activity is given at values of at least 85)”.

As to `COC(=O)COC(C)c1nc(C2CC2)ncc1-c1ccccc1Cl` (stereo not drawn) [Ex. 141], the herbicidal activity result with Setaria viridis (1000 g/ha) is “good (A good herbicidal activity is given at values of at least 70)”.

Take `O=[N+]([O-])c1ccccc1-c1cnc(C2CC2)nc1-c1cccs1` [Ex. 38]: the herbicidal activity result in the assay on Setaria viridis (1000 g/ha) was “good (A good herbicidal activity is given at values of at least 70)”.

As for `CCc1ncc(-c2ccccc2Br)c(-c2ccco2)n1` [Ex. 62], the herbicidal activity entry in the assay with Setaria viridis (500 g/ha) was “very good (a very good herbicidal activity is given at values of at least 85)”.

`OCc1nc(C2CC2)ncc1-c1ccc(F)cc1Cl` [Ex. 15]: the herbicidal activity entry is listed as “very good (a very good herbicidal activity is given at values of at least 85)” in the assay with Echinocloa crus-galli [2] (1000 g/ha); “very good (a very good herbicidal activity is given at values of at least 85)” in the assay with Apera spica-venti (1000 g/ha); “very good (a very good herbicidal activity is given at values of at least 85)” with Alopecurus myosuroides (1000 g/ha); “very good (a very good herbicidal activity is given at values of at least 85)” in the assay on Avena fatua; “good (A good herbicidal activity is given at values of at least 70)” with Amaranthus retroflexus (1000 g/ha).

Consider `Clc1ccc(-c2nc(C3CC3)ncc2-c2ccccc2Cl)s1` [Ex. 119], for which the herbicidal activity result in the assay with Alopecurus myosuroides (1000 g/ha) is “very good (a very good herbicidal activity is given at values of at least 85)”; with Setaria viridis (1000 g/ha), “good (A good herbicidal activity is given at values of at least 70)”.

Turning to `CC(Br)c1ncc(-c2ccccc2Cl)c(CBr)n1` (stereo not drawn) [Ex. 51], the herbicidal activity result in the assay on Setaria viridis (1000 g/ha) is recorded as “very good (a very good herbicidal activity is given at values of at least 85)”.

For `O=P(O)(O)C(Cc1nc(C2CC2)ncc1-c1ccccc1Cl)P(=O)(O)O` [Ex. 90], the herbicidal activity result in the assay with Setaria viridis (2000 g/ha) is on record as “very good (a very good herbicidal activity is given at values of at least 85)”.

For `Cc1cc(-c2nc(C3CC3)ncc2-c2ccccc2Cl)sn1` [Ex. 254], the herbicidal activity result was “good (A good herbicidal activity is given at values of at least 70)” in the assay on Alopecurus myosuroides (1000 g/ha), “very good (a very good herbicidal activity is given at values of at least 85)” in the assay with Echinocloa crus-galli [1] (1000 g/ha) and “very good (a very good herbicidal activity is given at values of at least 85)” in the assay with Amaranthus retroflexus (1000 g/ha).

As for `CC(O)c1nc(C2CC2)ncc1-c1ccccc1Br` (stereo not drawn) [Ex. 114], the herbicidal activity result in the assay on Setaria viridis (500 g/ha) was “very good (a very good herbicidal activity is given at values of at least 85)”.

For the molecule `Clc1ccccc1-c1cnc(C2CC2)nc1CC1CCCC1` [Ex. 99], the herbicidal activity entry in the assay on Setaria viridis (2000 g/ha) is recorded as “very good (a very good herbicidal activity is given at values of at least 85)”.

Regarding `COC(=O)C(O)Cc1nc(C2CC2)ncc1-c1ccccc1Cl` (stereo not drawn) [Ex. 129], the herbicidal activity entry in the assay with Apera spica-venti (2000 g/ha), in the assay on Alopecurus myosuroides (2000 g/ha), with Echinocloa crus-galli [1] (2000 g/ha) and with Amaranthus retroflexus (2000 g/ha) was “very good (a very good herbicidal activity is given at values of at least 85)” throughout.

With `Ic1ccccc1-c1cnc(C2CC2)nc1-c1ccco1` [Ex. 76], the values for the herbicidal activity entry in the assay on Alopecurus myosuroides (1000 g/ha) and in the assay on Setaria viridis (1000 g/ha) were “good (A good herbicidal activity is given at values of at least 70)” and “very good (a very good herbicidal activity is given at values of at least 85)”, respectively.

For the molecule `CC(C)=Cc1nc(C2CC2)ncc1-c1ccccc1Cl` [Ex. 70], the herbicidal activity result with Alopecurus myosuroides (2000 g/ha) and in the assay on Setaria viridis (2000 g/ha) was “very good (a very good herbicidal activity is given at values of at least 85)” each time.

Regarding `Clc1ccccc1-c1cnc(C2CC2)nc1CC1CCC1` [Ex. 98], the herbicidal activity entry in the assay on Setaria viridis (500 g/ha) is recorded as “good (A good herbicidal activity is given at values of at least 70)”.

Consider `Clc1ccccc1-c1cnc(C2CC2)nc1-c1ccc(Br)o1` [Ex. 31], for which the herbicidal activity result in the assay with Echinocloa crus-galli [2] (2000 g/ha), in the assay with Apera spica-venti (2000 g/ha), in the assay on Alopecurus myosuroides (2000 g/ha) and with Setaria viridis (2000 g/ha) was “very good (a very good herbicidal activity is given at values of at least 85)” in each case.

In the case of `Clc1ccccc1-c1cnc(C2CC2)nc1C=C1CCOCC1` [Ex. 92], the herbicidal activity entry in the assay on Alopecurus myosuroides (2000 g/ha), with Setaria viridis (2000 g/ha) and with Echinocloa crus-galli [1] (2000 g/ha) was “good (A good herbicidal activity is given at values of at least 70)” throughout.

For `Ic1ccccc1-c1cnc(C2CCC2)nc1-c1ccco1` [Ex. 78], in the assay with Setaria viridis (1000 g/ha), the herbicidal activity result was “very good (a very good herbicidal activity is given at values of at least 85)”.

Regarding `Clc1ccccc1-c1cnc(C2CC2)nc1-c1ccco1` [Ex. 24], the herbicidal activity entry in the assay with Echinocloa crus-galli [2] (2000 g/ha), with Apera spica-venti (2000 g/ha), in the assay with Setaria viridis (2000 g/ha) and with Echinocloa crus-galli [1] (2000 g/ha) was “very good (a very good herbicidal activity is given at values of at least 85)” in each case.

For the molecule `COC(=O)Cc1nc(C2CC2)ncc1-c1cc(F)ccc1Cl` [Ex. 150], the herbicidal activity entry in the assay with Echinocloa crus-galli [2] (2000 g/ha) is on record as “good (A good herbicidal activity is given at values of at least 70)”; with Apera spica-venti (2000 g/ha) it was “very good (a very good herbicidal activity is given at values of at least 85)”; in the assay on Alopecurus myosuroides (2000 g/ha), “good (A good herbicidal activity is given at values of at least 70)”; with Echinocloa crus-galli [1] (2000 g/ha) it was “very good (a very good herbicidal activity is given at values of at least 85)”; in the assay with Amaranthus retroflexus (2000 g/ha), “very good (a very good herbicidal activity is given at values of at least 85)”.

As to `Cc1ccoc1-c1nc(C2CC2)ncc1-c1ccccc1Cl` [Ex. 30], the herbicidal activity entry with Echinocloa crus-galli [2] (2000 g/ha), with Apera spica-venti (2000 g/ha), with Alopecurus myosuroides (2000 g/ha) and with Setaria viridis (2000 g/ha) was “very good (a very good herbicidal activity is given at values of at least 85)” each time.

Consider `CC(C)(C)CCc1nc(C2CC2)ncc1-c1ccccc1Cl` [Ex. 103], for which the herbicidal activity result with Setaria viridis (2000 g/ha) was “very good (a very good herbicidal activity is given at values of at least 85)”.

As for `Cc1nc(C(C)Br)ncc1-c1ccccc1Cl` (stereo not drawn) [Ex. 52], in the assay with Setaria viridis (1000 g/ha), the herbicidal activity result is listed as “very good (a very good herbicidal activity is given at values of at least 85)”.
